This is an account of results in US8846691B2, “Heterocyclic carboxylic acid derivatives having a 2,5,7-substituted oxazolopyrimidine ring” (Sanofi, priority 2010, dated 2014).

This assay has as its target T1, human Edg 1 receptor (Homo sapiens, UniProt P21453).
T1 construct: expressed in transfected cells; membrane preparation
Put plainly: GTP-γ-S assay using human Edg 1 receptors (scintillation proximity assay, CHO Flp-In membrane preparation). The assay is classed as biochemical. The note with it: test compound at 10 μM; high control 10 μM S1P regarded as 100% activation; background-corrected; triplicate; read-out: % activation (Edg 1 receptor activation in percent of the activation by 10 μM S1P). The source says: Determination of the Pharmacological Activity A) GTP-γ-S Assay Using Human Edg 1 Receptors
In order to determine the Edg 1 receptor activation by the compounds of the invention, a GTP-γ-S ((GTP-γ-S=guanosine 5′-[thio]triphosphate) assay for G-protein coupled receptor binding based on the scintillation proximity assay principle was used, employing a cell membrane preparation from a CHO Flp-In cell line which constitutively overexpresses the human Edg 1 receptor.
The Flp-In™ expression system (Invitrogen, cat. no. K6010-01) allows the generation of stable mammalian cell lines into which the gene of interest has been integrated through homologous recombination at a specific genomic location called Flp Recombination Target (FRT) site by means of a Flp recombinase encoded by the pOG44 expression plasmid. The integration of the pcDNA5/FRT expression construct into the Flp-In host cell line genome results in the transcription of the gene of interest. The stably transfected cells become hygromycin-resistant.
One day prior to transfection, 200 000 Flp-In-CHO cells were seeded in Ham F-12 medium (Invitrogen, cat. no. 31765) supplemented with 10% fetal calf serum (FCS; Perbio Science, cat. no. SH30068.03) in a 6-well plate and incubated at 37° C./5% CO2 overnight. Using the FuGENE® 6 transfection reagent (Roche, cat. no. 11988387001), cells were cotransfected with the Flp recombinase expression plasmid pOG44 and a modified plasmid additionally containing the edg 1 gene (accession no. NM_001400) termed as pcDNA5-FRT-TO_nFLAG_DEST-EDG 1 with a 9:1 ratio. To obtain the modified pcDNA5-FRT-TO_nFLAG_DEST plasmid, the Invitrogen plasmid pcDNA5/FRT/TO (Invitrogen, cat. no. V6520-20) was adapted to the Gateway® (Invitrogen) cloning system by inserting a Gateway cassette containing attR recombination sites flanking a ccdB gene and a chloramphenicol-resistance gene (Gateway conversion system, Invitrogen, cat. no. 11828-029). In addition a FLAG tag epitope was added before the 5′ att recombination site to allow recombinant expression of N-terminally FLAG-tagged proteins.
For the transfection of one well, 1.08 μg of pOG44 and 0.12 μg of pcDNA5-FRT-TO_nFLAG_DEST-EDG 1 were mixed with 100 μl of serum-free Ham F-12 medium containing 6 μl of FuGENE® 6 transfection reagent. After 20 min of incubation, the transfection reagent/DNA complex was distributed dropwise on the cells. The cells were incubated for 24 h at 37° C. Then the cells from 3 wells were transferred to a T75 flask (Greiner Cellstar®, cat. no. 658175) containing Ham F-12 medium supplemented with 10% of FCS but without antibiotic and were incubated for another 24 h. 48 h after transfection, the medium was replaced by selection medium (Ham F-12 supplemented with 10% of FCS and 300 μg/ml of hygromycin B (Invitrogen, cat. no. 10687-010)). The medium was exchanged every 2 to 3 days until a resistant population of cells had grown. […] After 2 weeks of selection, the cells were transferred into T175 flasks (Greiner Cellstar®, cat. no. 660175) and cultivated for batch production. Cells were harvested from the culture flasks by short treatment (2 to 5 min) with Accutase (PAA, cat. no. L^11-007), resuspended in selection medium (see above) and centrifuged at 200×g for 5 min. Cells were resuspended in a mixture of 90% of FCS and 10% of dimethyl sulfoxide and stored frozen in liquid nitrogen.
A membrane preparation was obtained by standard methods from the afore-described CHO Flp-In cell line constitutively overexpressing the human Edg 1 receptor. Briefly, the cryopreserved cells were taken in culture and grown until confluency in T175 cell culture flasks (Becton Dickinson, cat. no. 35 5001). […]
(In general: Scintillation proximity formats need no separation of bound from free tracer.)

T1 sequence (P21453 whole entry): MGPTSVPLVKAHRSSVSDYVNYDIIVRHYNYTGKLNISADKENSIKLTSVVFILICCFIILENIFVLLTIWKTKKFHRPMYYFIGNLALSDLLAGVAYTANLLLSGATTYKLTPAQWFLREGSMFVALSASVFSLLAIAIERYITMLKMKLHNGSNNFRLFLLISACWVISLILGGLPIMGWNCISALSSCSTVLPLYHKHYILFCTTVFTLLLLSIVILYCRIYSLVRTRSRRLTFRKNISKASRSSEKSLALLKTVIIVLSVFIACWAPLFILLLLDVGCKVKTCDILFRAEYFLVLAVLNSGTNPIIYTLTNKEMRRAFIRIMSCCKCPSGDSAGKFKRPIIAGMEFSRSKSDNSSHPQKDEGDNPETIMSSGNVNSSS

On to `CCCOc1nc(Oc2cc(F)ccc2F)nc2oc(-c3cc(C)c(OCC(=O)N4CCC[C@H]4C(=O)O)c(C)c3)nc12` [Example 1, (S)-1-(2-{4-[5-(2,5-Difluorophenoxy)-7-propoxyoxazolo[5,4-d]pyrimidin-2-yl]-2,6-dimethylphenoxy}acetyl)pyrrolidine-2-carboxylic acid], for which the activation at 10 µM is 101%. For `CCCOc1nc(OC2CCCC[C@H]2F)nc2oc(-c3cc(C)c(OCC(=O)N4CCC[C@H]4C(=O)O)c(C)c3)nc12` (stereo partly drawn) [Example 2, (S)-1-(2-{4-[5-(trans-2-fluorocyclohexyloxy)-7-propoxyoxazolo[5,4-d]pyrimidin-2-yl]-2,6-dimethylphenoxy}acetyl)pyrrolidine-2-carboxylic acid], the activation at 10 µM stood at 97%. In the case of `CCCOc1nc(Oc2ccccc2F)nc2oc(-c3cc(C)c(OCC(=O)N4CCC[C@H]4C(=O)O)c(C)c3)nc12` [Example 3, (S)-1-(2-{4-[5-(2-Fluorophenoxy)-7-propoxyoxazolo[5,4-d]pyrimidin-2-yl]-2,6-dimethylphenoxy}acetyl)pyrrolidine-2-carboxylic acid] it was 96%. Regarding `CCCOc1nc(Oc2cc(F)ccc2C)nc2oc(-c3cc(C)c(OCC(=O)N4CCC[C@H]4C(=O)O)c(C)c3)nc12` [Example 4, (S)-1-(2-{4-[5-(5-Fluoro-2-methylphenoxy)-7-propoxyoxazolo[5,4-d]pyrimidin-2-yl]-2,6-dimethylphenoxy}acetyl)pyrrolidine-2-carboxylic acid], the activation at 10 µM was determined as 110%. As for `CCCOc1nc(Oc2ccc(C)c(F)c2)nc2oc(-c3cc(C)c(OCC(=O)N4CCC[C@H]4C(=O)O)c(C)c3)nc12` [Example 5, (S)-1-(2-{4-[5-(3-Fluoro-4-methylphenoxy)-7-propoxyoxazolo[5,4-d]pyrimidin-2-yl]-2,6-dimethylphenoxy}acetyl)pyrrolidine-2-carboxylic acid], the activation at 10 µM turned out to be 79%. Turning to `CCCOc1nc(Oc2cccnc2)nc2oc(-c3cc(C)c(OCC(=O)N4CCC[C@H]4C(=O)O)c(C)c3)nc12` [Example 6, (S)-1-(2-{2,6-Dimethyl-4-[7-propoxy-5-(pyridin-3-yloxy)oxazolo[5,4-d]pyrimidin-2-yl]phenoxy}acetyl)pyrrolidine-2-carboxylic acid], the activation at 10 µM was 112%. On to `CCCOc1nc(Oc2ccc(F)cc2F)nc2oc(-c3cc(C)c(OCC(=O)N4CCC[C@H]4C(=O)O)c(C)c3)nc12` [Example 7, (S)-1-(2-{4-[5-(2,4-Difluorophenoxy)-7-propoxyoxazolo[5,4-d]pyrimidin-2-yl]-2,6-dimethylphenoxy}acetyl)pyrrolidine-2-carboxylic acid], for which the activation at 10 µM is 90%. Next, `CCCOc1nc(Oc2ccccc2)nc2oc(-c3cc(C)c(OCC(=O)N4CCC[C@H]4C(=O)O)c(C)c3)nc12` [Example 8, (S)-1-{2-[2,6-Dimethyl-4-(5-phenoxy-7-propoxyoxazolo[5,4-d]pyrimidin-2-yl)phenoxy]acetyl}pyrrolidine-2-carboxylic acid]: 108%. As for `CCCOc1nc(Oc2cccc(Cl)c2)nc2oc(-c3cc(C)c(OCC(=O)N4CCC[C@H]4C(=O)O)c(C)c3)nc12` [Example 9, (S)-1-(2-{4-[5-(3-Chlorophenoxy)-7-propoxyoxazolo[5,4-d]pyrimidin-2-yl]-2,6-dimethylphenoxy}acetyl)pyrrolidine-2-carboxylic acid], the activation at 10 µM turned out to be 128%. For the compound `CCOc1nc(Oc2cccc(Cl)c2)nc2oc(-c3cc(C)c(OCC(=O)N4CCC[C@H]4C(=O)O)c(C)c3)nc12` [Example 10, (S)-1-(2-{4-[5-(3-Chlorophenoxy)-7-ethoxyoxazolo[5,4-d]pyrimidin-2-yl]-2,6-dimethylphenoxy}acetyl)pyrrolidine-2-carboxylic acid], the activation at 10 µM turned out to be 69%. Turning to `CCOc1nc(Oc2cccc(F)c2)nc2oc(-c3cc(C)c(OCC(=O)N4CCC[C@H]4C(=O)O)c(C)c3)nc12` [Example 11, (S)-1-(2-{4-[7-Ethoxy-5-(3-fluorophenoxy)oxazolo[5,4-d]pyrimidin-2-yl]-2,6-dimethylphenoxy}acetyl)pyrrolidine-2-carboxylic acid], the activation at 10 µM came to 100%. For the compound `CCOc1nc(Oc2ccccc2F)nc2oc(-c3cc(C)c(OCC(=O)N4CCC[C@H]4C(=O)O)c(C)c3)nc12` [Example 12, (S)-1-(2-{4-[7-Ethoxy-5-(2-fluorophenoxy)oxazolo[5,4-d]pyrimidin-2-yl]-2,6-dimethylphenoxy}acetyl)pyrrolidine-2-carboxylic acid], the activation at 10 µM is 70%. In the case of `CCOc1nc(Oc2cc(F)ccc2F)nc2oc(-c3cc(C)c(OCC(=O)N4CCC[C@H]4C(=O)O)c(C)c3)nc12` [Example 13, (S)-1-(2-{4-[5-(2,5-Difluorophenoxy)-7-ethoxyoxazolo[5,4-d]pyrimidin-2-yl]-2,6-dimethylphenoxy}acetyl)pyrrolidine-2-carboxylic acid], the activation at 10 µM turned out to be 95%. In the case of `CCOc1nc(Oc2cc(F)ccc2C)nc2oc(-c3cc(C)c(OCC(=O)N4CCC[C@H]4C(=O)O)c(C)c3)nc12` [Example 14, (S)-1-(2-{4-[7-Ethoxy-5-(5-fluoro-2-methylphenoxy)oxazolo[5,4-d]pyrimidin-2-yl]-2,6-dimethylphenoxy}acetyl)pyrrolidine-2-carboxylic acid] it was 99%. For the compound `CCCOc1nc(N(C)CCC(F)(F)F)nc2oc(-c3cc(C)c(OCC(=O)N4CCC[C@H]4C(=O)O)c(C)c3)nc12` [Example 15, (S)-1-[2-(2,6-Dimethyl-4-{5-[methyl-(3,3,3-trifluoropropyl)amino]-7-propoxyoxazolo[5,4-d]pyrimidin-2-yl}phenoxy)acetyl]pyrrolidine-2-carboxylic acid], the activation at 10 µM was found to be 42%. Turning to `CCCOc1nc(OCC2CCC2)nc2oc(-c3cc(C)c(OCC(=O)N4CCC[C@H]4C(=O)O)c(C)c3)nc12` [Example 16, (S)-1-{2-[4-(5-Cyclobutylmethoxy-7-propoxyoxazolo[5,4-d]pyrimidin-2-yl)-2,6-dimethylphenoxy]acetyl}pyrrolidine-2-carboxylic acid], the activation at 10 µM is 85%.
